Laboratory results reported in article PMC9027910, “Synthesis and Antimycobacterial Evaluation of N-(4-(Benzyloxy)benzyl)-4-aminoquinolines” (Molecules, 2022).

Experiments:
M. tuberculosis H37Rv = assay: Minimum inhibitory concentration (resazurin microplate); assay type: cell-based, Mycobacterium tuberculosis; conditions: for MIC: Mycobacterium tuberculosis, M. tuberculosis H37Rv, 7 days + 48 h resazurin, highest value of three assays; for Activity against M. tuberculosis H37Rv in words: at the highest concentrations evaluated

| Structure (SMILES) | MIC (M. tuberculosis H37Rv) | Activity against M. tuberculosis H37Rv in words (M. tuberculosis H37Rv) | melting point | Fold reduction of activity versus 9n and 9o (M. tuberculosis H37Rv; MIC of unsubstituted benzyloxy compound versus 4-halogenated 9n, 9o) | Fold higher MIC than 9n (M. tuberculosis H37Rv; MIC ratio versus methylated analogue 9n) |
| --- | --- | --- | --- | --- | --- |
| Cc1cc(NCc2ccc(OCc3ccccc3)cc2)c2ccccc2n1 [Compound 9a, N-(4-(benzyloxy)benzyl)-2-methylquinolin-4-amine] | > 7 µM | inactive | 134 to 136 °C | – | – |
| CCc1cc(NCc2ccc(OCc3ccccc3)cc2)c2cc(OC)ccc2n1 [Compound 9aa, N-(4-(benzyloxy)benzyl)-2-ethyl-6-methoxyquinolin-4-amine] | 12.5 µM | – | 118 to 120 °C | – | – |
| Cc1cc(NCc2ccc(OCc3ccc(Cl)cc3)cc2)c2ccccc2n1 [Compound 9b, N-(4-((4-chlorobenzyl)oxy)benzyl)-2-methylquinolin-4-amine] | > 12.9 µM | inactive | 111 to 113 °C | – | – |
| Cc1cc(NCc2ccc(OCc3ccc(F)cc3)cc2)c2ccccc2n1 [Compound 9c, N-(4-((4-fluorobenzyl)oxy)benzyl)-2-methylquinolin-4-amine] | 26.8 µM | – | 134 to 136 °C | – | – |
| Cc1cc(NCc2ccc(OCc3ccc(F)c(F)c3)cc2)c2ccccc2n1 [Compound 9d, N-(4-((3,4-difluorobenzyl)oxy)benzyl)-2-methylquinolin-4-amine] | 25.6 µM | – | 199 to 201 °C | – | – |
| Cc1cc(NCc2ccc(OCc3ccc(C(C)C)cc3)cc2)c2ccccc2n1 [Compound 9e, N-(4-((4-isopropylbenzyl)oxy)benzyl)-2-methylquinolin-4-amine] | 27 µM | – | 95 to 97 °C | – | – |
| COc1cc(COc2ccc(CNc3cc(C)nc4ccccc34)cc2)cc(OC)c1 [Compound 9f, N-(4-((3,5-dimethoxybenzyl)oxy)benzyl)-2-methylquinolin-4-amine] | 12.1 µM | – | 134 to 136 °C | – | – |
| Cc1cc(NCc2ccc(OCc3ccccc3)cc2)c2cc(Cl)ccc2n1 [Compound 9g, N-(4-(benzyloxy)benzyl)-6-chloro-2-methylquinolin-4-amine] | 6.4 µM | – | 165 to 167 °C | – | – |
| Cc1cc(NCc2ccc(OCc3ccc(Cl)cc3)cc2)c2cc(Cl)ccc2n1 [Compound 9h, N-(4-((4-chlorobenzyl)oxy)benzyl) 6-chloro-2-methylquinolin-4-amine] | 5.9 µM | – | 177 to 179 °C | – | – |
| Cc1cc(NCc2ccc(OCc3ccc(F)cc3)cc2)c2cc(Cl)ccc2n1 [Compound 9i, N-(4-((4-fluorobenzyl)oxy)benzyl) 6-chloro-2-methylquinolin-4-amine] | 6.1 µM | – | 170 to 172 °C | – | – |
| Cc1cc(NCc2ccc(OCc3ccc(F)c(F)c3)cc2)c2cc(Cl)ccc2n1 [Compound 9j, N-(4-((3,4-difluorobenzyl)oxy)benzyl)-6-chloro-2-methylquinolin-4-amine] | 5.9 µM | – | 137 to 139 °C | – | – |
| Cc1cc(NCc2ccc(OCc3ccc(C(C)C)cc3)cc2)c2cc(Cl)ccc2n1 [Compound 9k, N-(4-((4-isopropylbenzyl)oxy)benzyl)-6-chloro-2-methylquinolin-4-amine] | 5.8 µM | – | 126 to 128 °C | – | – |
| COc1cc(COc2ccc(CNc3cc(C)nc4ccc(Cl)cc34)cc2)cc(OC)c1 [Compound 9l, N-(4-((3,5-dimethoxybenzyl)oxy)benzyl)-6-chloro-2-methylquinolin-4-amine] | 5.7 µM | – | 147 to 149 °C | – | – |
| Cc1cc(NCc2ccc(OCc3ccccc3)cc2)c2cc(Br)ccc2n1 [Compound 9m, N-(4-(benzyloxy)benzyl)-6-bromo-2-methylquinolin-4-amine] | 5.8 µM | – | 164 to 166 °C | more than 2 fold | – |
| Cc1cc(NCc2ccc(OCc3ccc(F)c(F)c3)cc2)c2cc(Br)ccc2n1 [Compound 9p, N-(4-((3,4-difluorobenzyl)oxy)benzyl) 6-bromo-2-methylquinolin-4-amine] | 5.3 µM | – | 142 to 144 °C | – | – |
| Cc1cc(NCc2ccc(OCc3ccc(C(C)C)cc3)cc2)c2cc(Br)ccc2n1 [Compound 9q, N-(4-((4-isopropylbenzyl)oxy)benzyl) 6-bromo-2-methylquinolin-4-amine] | 5.3 µM | – | 135 to 137 °C | – | – |
| COc1cc(COc2ccc(CNc3cc(C)nc4ccc(Br)cc34)cc2)cc(OC)c1 [Compound 9r, N-(4-((3,5-dimethoxybenzyl)oxy)benzyl)-6-bromo-2-methylquinolin-4-amine] | 5.1 µM | – | 151 to 153 °C | – | – |
| CCc1cc(NCc2ccc(OCc3ccccc3)cc2)c2cc(Br)ccc2n1 [Compound 9s, N-(4-(benzyloxy)benzyl)-6-bromo-2-ethylquinolin-4-amine] | 5.6 µM | – | 136 to 138 °C | – | – |
| CCc1cc(NCc2ccc(OCc3ccc(Cl)cc3)cc2)c2cc(Br)ccc2n1 [Compound 9t, N-(4-((4-chlorobenzyl)oxy)benzyl)-6-bromo-2-ethylquinolin-4-amine] | 5.2 µM | – | 122 to 124 °C | – | 1.9 fold |
| COc1ccc2nc(C)cc(NCc3ccc(OCc4ccccc4)cc3)c2c1 [Compound 9u, N-(4-(benzyloxy)benzyl)-6-methoxy-2-methylquinolin-4-amine] | 13 µM | – | 96 to 98 °C | – | – |
| COc1ccc2nc(C)cc(NCc3ccc(OCc4ccc(Cl)cc4)cc3)c2c1 [Compound 9v, N-(4-((4-chlorobenzyl)oxy)benzyl)-6-methoxy-2-methylquinolin-4-amine] | 11.9 µM | – | 259 to 261 °C | – | – |
| COc1ccc2nc(C)cc(NCc3ccc(OCc4ccc(C(C)C)cc4)cc3)c2c1 [Compound 9w, N-(4-((4-isopropylbenzyl)oxy)benzyl)-6-methoxy-2-methylquinolin-4-amine] | 23.4 µM | – | 133 to 135 °C | – | – |
| COc1ccc2nc(C)cc(NCc3ccc(OCc4ccc(F)cc4)cc3)c2c1 [Compound 9x, N-(4-((4-fluorobenzyl)oxy)benzyl)-6-methoxy-2-methylquinolin-4-amine] | 12.4 µM | – | 141 to 143 °C | – | – |
| COc1ccc2nc(C)cc(NCc3ccc(OCc4ccc(F)c(F)c4)cc3)c2c1 [Compound 9y, N-(4-((3,4-difluorobenzyl)oxy)benzyl)-6-methoxy-2-methylquinolin-4-amine] | 5.9 µM | – | 104 to 106 °C | – | – |
| COc1cc(COc2ccc(CNc3cc(C)nc4ccc(OC)cc34)cc2)cc(OC)c1 [Compound 9z, N-(4-((3,5-dimethoxybenzyl)oxy)benzyl)-6-methoxy-2-methylquinolin-4-amine] | 11.2 µM | – | 164 to 166 °C | – | – |
| NNC(=O)c1ccncc1 [INH, isoniazid, reference compound] | 2.3 µM | – | – | – | – |
